The source of these data is ChEMBL document CHEMBL6134898, “In Vitro ADME Profiling of PROTACs: Successes, Challenges, and Lessons Learned from Analysis of Clinical PROTACs from a Diverse Physicochemical Space” (J Med Chem, 2025).

Molecules are shown by their SMILES. ≈ marks a conversion by molar mass, not a printed value.

A short description of series [1]: Intrinsic clearance in mouse hepatocytes measured per million cells at 1 uM measured for 0.5 to 120 mins by LC-MS/MS analysis. The class given is ADME, cell-based, Hepatocyte. Particulars: time 0.5-120 min, read-out: CLH.
The nature of series [2]: Lipophilicity, LogD of compound by Chromatography. The class given is physicochemical.
Series [3] can be described thus: Protein binding in human plasma assessed as compound recovery at 5 uM incubated for 18 hrs by LC-MS/MS analysis. The class given is ADME, cell-free. The note with it: read-out: Drug recovery.
Series [4] in a line: Blood to plasma partitioning ratio in rat at 10 uM incubated for 30 mins by LC-MS/MS analysis. The class given is ADME, cell-free. The note with it: whole blood.
The nature of series [5]: Solubility of compound in SGF at pH 1.2 measured after 24 hrs by UPLC analysis. The class given is physicochemical.
Series [6] can be described thus: Solubility of compound in FaSSIF at pH 6.5 measured after 24 hrs by UPLC analysis. It is filed as physicochemical.
A short description of series [7]: Protein binding in mouse plasma assessed as free fraction at 5 uM incubated for 18 hrs by LC-MS/MS analysis. The class given is ADME, cell-free.
A short description of series [8]: Protein binding in rat plasma assessed as free fraction at 5 uM incubated for 18 hrs by LC-MS/MS analysis. The class given is ADME, cell-free.
The nature of series [9]: Apparent permeability across apical to basal side in human Caco-2 cells at 1 uM incubated for 120 mins by LC-MS/MS analysis. It is filed as ADME, cell-based.
A short description of series [10]: Protein binding in dog plasma assessed as free fraction at 5 uM incubated for 18 hrs by LC-MS/MS analysis. It is filed as ADME, cell-free, Canis lupus familiaris.
The nature of series [11]: Blood to plasma partitioning ratio in human at 10 uM incubated for 30 mins by LC-MS/MS analysis. It is filed as ADME, cell-free. The note with it: whole blood.
The nature of series [12]: Intrinsic clearance in monkey hepatocytes measured per million cells at 1 uM measured for 0.5 to 120 mins by LC-MS/MS analysis. The note with it: rhesus monkey, time 0.5-120 min, read-out: CLH. It is filed as ADME, cell-based, Macaca mulatta, Hepatocyte.
Series [13] in a line: Intrinsic clearance in dog hepatocytes measured per million cells at 1 uM measured for 0.5 to 120 mins by LC-MS/MS analysis. It is filed as ADME, cell-based, Canis lupus familiaris, Hepatocyte. The note with it: time 0.5-120 min, read-out: CLH.
Series [14] can be described thus: Apparent permeability across apical to basal side in human Caco-2 cells at 1 uM incubated for 120 mins followed by ACN addition by LC-MS/MS analysis. It is filed as ADME, cell-based.
A short description of series [15]: Blood to plasma partitioning ratio in dog at 10 uM incubated for 30 mins by LC-MS/MS analysis. The class given is ADME, cell-free, Canis lupus familiaris. Particulars: whole blood.
A short description of series [16]: Intrinsic clearance in human hepatocytes measured per million cells at 1 uM measured for 0.5 to 120 mins by LC-MS/MS analysis. It is filed as ADME, cell-based, Hepatocyte. The note with it: time 0.5-120 min, read-out: CLH.
Series [17] in a line: Intrinsic clearance in rat hepatocytes measured per million cells at 1 uM measured for 0.5 to 120 mins by LC-MS/MS analysis. The note with it: time 0.5-120 min, read-out: CLH. It is filed as ADME, cell-based, Hepatocyte.
The nature of series [18]: Protein binding in monkey plasma assessed as free fraction at 5 uM incubated for 18 hrs by LC-MS/MS analysis. The class given is ADME, cell-free, Macaca mulatta. The note with it: rhesus monkey.
Series [19] can be described thus: Solubility of compound in FeSSIF at pH 5 measured after 24 hrs by UPLC analysis. It is filed as physicochemical.
Series [20] in a line: Protein binding in rat hepatocytes assessed as free fraction at 5 uM incubated for 18 hrs by LC-MS/MS analysis. It is filed as ADME, cell-based, Hepatocyte.
Series [21] is described as follows: Protein binding in human plasma assessed as free fraction at 5 uM incubated for 18 hrs by LC-MS/MS analysis. It is filed as ADME, cell-free.
Series [22] can be described thus: Stability in human plasma at 5 uM incubated for 18 hrs by LC-MS/MS analysis. The note with it: read-out: Stability. It is filed as ADME, cell-free.

Consider `CN1CCN([C@@H]2CCCN(c3cnc(C(N)=O)c(Nc4ccc(C5CCN(CC6CCN(c7ccc(C(=O)N[C@H]8CCC(=O)NC8=O)nc7)CC6)CC5)cc4)n3)C2)C1=O` [NX-5948], for which the hepatocyte CLint at 1 µM in series [1] came out at 4 µL/min/1e6 cells; in series [12], 16 µL/min/1e6 cells; in [13] it was 3 µL/min/1e6 cells; in [16], 5 µL/min/1e6 cells; in series [17], 3 µL/min/1e6 cells. This compound also came in with a chromatographic logD in series [2] of 2.2. In addition, the recovery at 18 h, 5 µM in series [3] was 40%. The blood plasma ratio at 0.5 h, 10 µM in [4] was 1.1; in [11], 1; in series [15] it was 2.6. For the same compound, the solubility at 24 h in [5] worked out at 559 µg/mL (≈ 693 µM); in series [6], 2.5 µg/mL (≈ 3.1 µM); in [19], 51 µg/mL (≈ 63.2 µM). Further, the fraction unbound at 18 h, 5 µM came out at 0.024 in [7]; 0.073 in [8]; 0.067 in series [10]; 0.094 in [18]; 0.178 in series [20]; 0.024 in [21]. In addition, the Papp A→B at 2 h, 1 µM worked out at 2.8 ×10⁻⁶ cm/s in series [9] and 8.7 ×10⁻⁶ cm/s in series [14]. In addition, the remaining at 18 h, 5 µM in series [22] is 43%.

For `O=C1CC[C@H](N2Cc3cc(N4CCN(CC5CCN(c6ccc([C@@H]7c8ccc(O)cc8CC[C@@H]7c7ccccc7)cc6)CC5)CC4)ccc3C2=O)C(=O)N1` [VEPDEGESTRANT], the hepatocyte CLint at 1 µM is 23 µL/min/1e6 cells in series [1]; 5 µL/min/1e6 cells in series [12]; 3 µL/min/1e6 cells in [13]; 3 µL/min/1e6 cells in series [16]; 9 µL/min/1e6 cells in series [17]. In series [2], this compound displayed a chromatographic logD of 5.7. Further, the recovery at 18 h, 5 µM in series [3] came to 77%. Besides, the figures for the blood plasma ratio at 0.5 h, 10 µM in series [4], in [11] and in series [15] were 0.6, 0.7 and 0.5, respectively. Besides, the solubility at 24 h in series [5] worked out at 230 µg/mL (≈ 318 µM); in series [6], 2.6 µg/mL (≈ 3.59 µM); in series [19], 274 µg/mL (≈ 378 µM). In addition, the fraction unbound at 18 h, 5 µM in series [7] was less than 0.001; in series [8] it was less than 0.001; in [10], less than 0.001; in series [18], less than 0.002; in series [20], less than 0.001; in series [21] it was less than 0.003. Further, the Papp A→B at 2 h, 1 µM in series [9] and in series [14] was less than 0.1 ×10⁻⁶ cm/s throughout. The remaining at 18 h, 5 µM in [22] was 77%.
